Reference: patent US20250270209A1 (INTERLINE THERAPEUTICS, INC., priority 2022, published 2025)
pIC50: −log10 of the molar value.

Tests used:
[1] = biological target: T1, wild type LRRK2 overexpressed in recombinant HEK-293T cells (Homo sapiens, UniProt Q5S007); assay: pS935 LRRK2 Cell Assay (HTRF, phospho-LRRK2 Ser935); format: cell-based; conditions: LRRK2 Inhibition, Table 8, 2 hours compound incubation
T1 construct: host or cells: HEK293T (transient transfection with pCMV-LRRK2 WT plasmid)
Experimental: (§1) A 2× detection solution was prepared: Tb-pERM (pLRRKtide) antibody (final concentration 0.25 nM) and EDTA (final concentration 10 mM) in TR-FRET dilution buffer. 10 μL 2× detection solution was dispensed to each well in assay plate to stop kinase reaction by Multidrop. Assay plate was spun at 1,000 rpm for 1 min and incubate for 30 min at 23° C. Assay plate was then read on Envision configured for LanthaScreen® TR-FRET. pS935 LRRK2 Cell Assay
The following protocol describes an in-vitro method for measuring phosphorylation at Ser935 on wild type LRRK2 overexpressed in recombinant HEK-293T cells. The method is based on HTRF technology, which combines Fluorescence Resonance Energy Transfer (FRET) with Time-Resolved measurement (TR). Phospho-LRRK2 (Ser935) is detected in a sandwich assay format using two different specific antibodies, one labelled with Eu3+-Cryptate (donor) and the second with d2(acceptor).When the fluorophores are in close proximity, excitation of the donor with a light source (flash lamp) stimulates FRET to the acceptor, which in turn fluoresces at a specific wavelength (665 nm). The fluorescence emission at 615 nm from the donor is also measured to allow ratiometric reduction of data. The specific signal is proportional to phospho-LRRK2 (Ser935).
Plasmid transient transfection: DMEM medium, FBS, DPBS, Trans-IT, OPTI-MEM reagents were allowed to warm to room temperature. HEK293T cells were cultured in DMEM +10% FBS complete medium in T150 flasks till around 80% confluency before transfection. Then cells were washed with 10 mL PBS and detached with 3 mL 0.25% typinsin. 30×10E6 HEK293T cells were seeded in DMEM +10% FBS complete medium to a 15 cm dish.
DNA, TransIT-LT1, OPTI-MEM complex were prepared: […] OPTI-MEM was added to a 15 mL cone tube, then […] plasmid was added to OPTI-MEM and mixed, followed by addition of 60 μL TransIT-LT1 to the plasmid OPTI-MEM mixture and mixing. The resulting mixture was incubated for 15 minutes.
The above plasmid, DNA and OPTI-MEM mixture was added dropwise to the 15 cm dish, ensuring the drops were evenly distributed. The culture dish was gently rocked back and forth and from left to right to evenly distribute the complex. The tranfected dish was incubated for 24 hours at 37° C., and 5% CO2.
Transfected HEK293T was collected in the 15 cm dish. Media was aspirated from tissue culture dish, and washed by dispensing 10 mL 1× DPBS into 15 cm dish. 1× DPBS was aspirated and 3 mL trypsin was dispensed to 15 cm dish. The dish was incubated with trypsin at room temperature for 3 min until the cells were detached. 10 mL of DMEM +10% FBS medium were added to 15 cm dish and triturated to ensure homogenous cell suspensions.
Homogenous cell suspensions were transferred to a 50 mL tube, and centrifuged for 5 minutes at 1,000 rmp/min. The supernatant was aspirated and resuspended with 20 mL complete medium. 1 mL of cell suspension was transferred for cell counting. The cell suspension was diluted to 2× 10E5 cells/ml. 50 μL cell suspensions were added to a 384-well plate. The plate was quick spun at 800 rpm for 1 minute, then incubate overnight at 37° C., 5% CO2.
Compound dispensing: compound was diluted (10 mM DMSO stock solution) and added to assay plate (top concentration: 10 μM, 3 fold serial dilution, 9 doses) with duplicates by Tecan liquid handler. The DMSO concentration of each well was normalized to 0.2%. Plates were quick spun at 1,000 rpm for 1 minute. Plates were incubated at 37° C., 5% CO2 for 2 hours.
1× lysis buffer solution supplemented with blocking reagent was prepared (e.g. 1 mL lysis buffer 4X+3 mL water+40 μL stock blocking reagent 100X). Antibodies working solution was prepared by diluting 40-fold d2 and Cryptate antibodies with detection buffer(e.g. 1520 μL detection buffer+40 μL d2-antibody stock solution+[…] Cryptate-antibody stock solution).
After 2 hours incubation, cell plates were taken out from the incubator. […]

LRRK2 wild type enzyme = LRRK2 wild type enzyme (Homo sapiens, UniProt Q5S007); assay: Biochemical Assay: LRRK2 TR-FRET (LanthaScreen) kinase assay with LRRKtide substrate; conditions: LRRK2 Inhibition, Table 8
Chain of LRRK2 wild type enzyme (Q5S007 whole entry): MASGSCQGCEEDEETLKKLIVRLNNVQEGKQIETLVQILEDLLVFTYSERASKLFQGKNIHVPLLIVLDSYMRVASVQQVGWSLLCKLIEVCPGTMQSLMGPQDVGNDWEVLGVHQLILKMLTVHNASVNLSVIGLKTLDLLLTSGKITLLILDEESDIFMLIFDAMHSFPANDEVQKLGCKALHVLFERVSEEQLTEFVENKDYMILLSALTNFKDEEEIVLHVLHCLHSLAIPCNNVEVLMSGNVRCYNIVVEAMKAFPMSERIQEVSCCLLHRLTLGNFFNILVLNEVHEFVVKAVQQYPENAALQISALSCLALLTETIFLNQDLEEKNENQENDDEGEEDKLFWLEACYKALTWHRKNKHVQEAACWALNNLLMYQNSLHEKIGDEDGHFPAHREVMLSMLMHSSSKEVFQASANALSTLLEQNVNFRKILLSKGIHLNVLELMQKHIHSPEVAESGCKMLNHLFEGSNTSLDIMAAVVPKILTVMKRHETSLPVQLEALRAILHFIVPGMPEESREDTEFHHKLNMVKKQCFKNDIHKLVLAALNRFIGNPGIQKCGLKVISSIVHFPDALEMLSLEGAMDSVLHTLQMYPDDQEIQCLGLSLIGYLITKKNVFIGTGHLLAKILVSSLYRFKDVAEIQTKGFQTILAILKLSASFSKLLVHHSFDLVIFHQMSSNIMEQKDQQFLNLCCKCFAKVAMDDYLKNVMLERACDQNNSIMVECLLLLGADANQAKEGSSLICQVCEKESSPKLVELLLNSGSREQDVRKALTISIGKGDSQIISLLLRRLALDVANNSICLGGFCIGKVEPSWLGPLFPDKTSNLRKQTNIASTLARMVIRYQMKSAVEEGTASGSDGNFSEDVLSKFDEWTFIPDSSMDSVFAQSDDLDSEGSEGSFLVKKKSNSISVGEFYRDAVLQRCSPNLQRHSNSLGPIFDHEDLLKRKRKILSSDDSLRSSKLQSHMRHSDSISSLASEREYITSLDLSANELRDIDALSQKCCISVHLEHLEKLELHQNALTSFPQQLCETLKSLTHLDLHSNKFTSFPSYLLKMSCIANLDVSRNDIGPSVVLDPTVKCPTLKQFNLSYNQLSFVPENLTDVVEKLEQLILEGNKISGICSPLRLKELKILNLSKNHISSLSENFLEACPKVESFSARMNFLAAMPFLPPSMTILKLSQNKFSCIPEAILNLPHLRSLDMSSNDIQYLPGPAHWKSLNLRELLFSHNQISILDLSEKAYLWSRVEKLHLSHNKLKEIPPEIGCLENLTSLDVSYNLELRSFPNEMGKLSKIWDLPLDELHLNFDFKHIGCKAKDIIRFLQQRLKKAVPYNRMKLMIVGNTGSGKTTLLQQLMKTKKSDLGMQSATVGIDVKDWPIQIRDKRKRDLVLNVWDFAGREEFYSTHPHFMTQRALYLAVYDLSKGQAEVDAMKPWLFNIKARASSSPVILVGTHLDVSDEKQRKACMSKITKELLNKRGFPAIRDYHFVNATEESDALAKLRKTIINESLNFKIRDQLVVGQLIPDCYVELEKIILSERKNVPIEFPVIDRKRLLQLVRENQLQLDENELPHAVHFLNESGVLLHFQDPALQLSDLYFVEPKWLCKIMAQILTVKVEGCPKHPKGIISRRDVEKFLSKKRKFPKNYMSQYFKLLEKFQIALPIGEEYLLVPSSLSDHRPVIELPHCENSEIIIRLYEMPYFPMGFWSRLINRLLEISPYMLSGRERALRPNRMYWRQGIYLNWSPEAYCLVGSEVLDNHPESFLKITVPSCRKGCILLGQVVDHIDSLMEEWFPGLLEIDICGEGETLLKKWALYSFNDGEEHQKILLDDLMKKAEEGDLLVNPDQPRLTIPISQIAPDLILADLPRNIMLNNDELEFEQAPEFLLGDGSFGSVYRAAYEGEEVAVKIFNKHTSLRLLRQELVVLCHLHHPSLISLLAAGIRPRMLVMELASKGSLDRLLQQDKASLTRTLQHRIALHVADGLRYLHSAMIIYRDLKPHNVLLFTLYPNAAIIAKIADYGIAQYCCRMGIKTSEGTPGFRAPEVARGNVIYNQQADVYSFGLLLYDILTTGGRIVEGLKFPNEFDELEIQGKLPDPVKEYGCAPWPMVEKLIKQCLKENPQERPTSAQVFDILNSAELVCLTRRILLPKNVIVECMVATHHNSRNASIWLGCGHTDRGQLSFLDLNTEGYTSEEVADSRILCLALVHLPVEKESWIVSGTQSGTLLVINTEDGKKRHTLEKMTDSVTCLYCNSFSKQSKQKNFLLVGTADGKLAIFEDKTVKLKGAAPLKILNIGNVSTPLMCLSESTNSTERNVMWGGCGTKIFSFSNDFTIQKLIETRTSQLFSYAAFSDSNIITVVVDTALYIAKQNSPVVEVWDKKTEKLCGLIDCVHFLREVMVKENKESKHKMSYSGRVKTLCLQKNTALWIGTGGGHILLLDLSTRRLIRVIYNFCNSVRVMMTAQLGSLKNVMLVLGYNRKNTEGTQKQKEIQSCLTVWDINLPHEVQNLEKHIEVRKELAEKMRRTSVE
Experimental: 10 mM compound solution was prepared in DMSO. An 11-point, 3-fold dilution was performed, with highest concentration at 10 μM. A 10 mM compound DMSO solution was added to Labcyte LDV plate and the compound concentration of source plate was 10 mM. The 1st compound concentration of Inter plate(Labcyte 384 well PP plate) was 4.938×10^−1 mM which was prepared by transferring 1.5 μL of 10 mM compound from source plate to 28.9 μL DMSO. The 2nd compound concentration of Inter plate was 1.829×10^−2 mM which was prepared by transferring 60 nL of 10 mM compound from source plate to 32.7 μL DMSO. The 3rd compound concentration of Inter plate was 6.774×10^−4 mM which was prepared by transferring 2.5 nL of 10 mM compound from source plate to 36.9 μL DMSO. 100 nL of reference compound was dispensed in column 1 for low control wells and 100 nL of DMSO in column 24 for high control wells. Compounds were dispensed to column 2 to 23 of assay plate and backfilled with DMSO to a total volume of 100 nL.
A 2X LRRK2 enzyme solution (final concentration 3 nM) was prepared in assay buffer (Tris-HCl pH8.0:50 mM, MgCl2: 5 mM, EDTA: 1 mM, Brij-35:0.01%, 2 mM DTT). A 2× substrate solution was prepared: LRRK2 tide substrate (final concentration 400 nM) and ATP (final concentration 25 μM) in assay buffer. 5 μL 2× LRRK2 enzyme solution was dispensed to each well in assay plate by Multidrop. Assay plate was spun at 1,000 rpm for 1 min and incubated for 15 min at 23° C. 5 μL 2× ATP/LRRKtide solution was dispensed to each well in assay plate by Multidrop. Assay plate was spun at 1,000 rpm for 1 min and incubated for 120 min at 23° C.
as §1

T1 sequence (Q5S007 whole entry): as above

Row | SMILES | pIC50 [1] | pIC50 (LRRK2 wild type enzyme)
1 | C[C@@H]1C[C@H](n2c(CN3CCCC3=O)nc3cnc4ccc(C#N)cc4c32)CCO1 [Compound 80, 1-[(2R,4R)-2-methyloxan-4-yl]-2-[(2-oxopyrrolidin-1-yl)methyl]-1H-imidazo[4,5-c]quinoline-8-carbonitrile] | 6.35 | 8.37
2 | C[C@@H]1C[C@H](n2c(CC(=O)Nc3ccn(C)n3)nc3cnc4ccc(C#N)cc4c32)CCO1 [Compound 188, 2-{8-cyano-1-[(2R,4R)-2-methyloxan-4-yl]-1H-imidazo[4,5-c]quinolin-2-yl}-N-(1-methyl-1H-pyrazol-3-yl)acetamide] | 8.12 | 9.49
3 | C[C@@H]1C[C@H](n2c(CC(N)=O)nc3cnc4ccc(C#N)cc4c32)CCO1 [Compound 16, 2-{8-cyano-1-[(2R,4R)-2-methyloxan-4-yl]-1H-imidazo[4,5-c]quinolin-2-yl}acetamide] | 6.84 | 8.94
4 | CCOc1ccc(NC(=O)Cc2nc3cnc4ccc(C#N)cc4c3n2[C@@H]2CCO[C@H](C)C2)cn1 [Compound 274, N-(6-ethoxy-3-pyridyl){3-[(2R,4R)-2-methyltetrahydro-2H-pyran-4-yl]-12-cyano-3,5,8-triazatricyclo[7.4.0.0^2,6]trideca-1,4,6,8,10,12-hexaen-4-yl}acetamide] | 8.10 | 9.35
5 | C[C@@H]1C[C@H](n2c(CC(=O)NCC3COC3)nc3cnc4ccc(C#N)cc4c32)CCO1 [Compound 177, 2-{8-cyano-1-[(2R,4R)-2-methyloxan-4-yl]-1H-imidazo[4,5-c]quinolin-2-yl}-N-[(oxetan-3-yl)methyl]acetamide] | 6.91 | 9.28
6 | C[C@@H]1C[C@H](n2c(CC(=O)Nc3ccnn3C3COC3)nc3cnc4ccc(C#N)cc4c32)CCO1 [Compound 345, N-[1-(3-oxetanyl)-5-pyrazolyl]{3-[(2R,4R)-2-methyltetrahydro-2H-pyran-4-yl]-12-cyano-3,5,8-triazatricyclo[7.4.0.0^2,6]trideca-1(9),2(6),4,7,10,12-hexaen-4-yl}acetamide] | 7.28 | 9.24
7 | C[C@@H]1C[C@H](n2c(CC(=O)Nc3cc(C(F)(F)F)on3)nc3cnc4ccc(C#N)cc4c32)CCO1 [Compound 339, N-[5-(trifluoromethyl)-3-isoxazolyl]{3-[(2R,4R)-2-methyltetrahydro-2H-pyran-4-yl]-12-cyano-3,5,8-triazatricyclo[7.4.0.0^2,6]trideca-1(9),2(6),4,7,10,12-hexaen-4-yl}acetamide] | 7.94 | 8.95
8 | Cc1cncc(NC(=O)Cc2nc3cnc4ccc(C#N)cc4c3n2[C@@H]2CCO[C@H](C)C2)n1 [Compound 314, N-(6-methyl-2-pyrazinyl){3-[(2R,4R)-2-methyltetrahydro-2H-pyran-4-yl]-12-cyano-3,5,8-triazatricyclo[7.4.0.0^2,6]trideca-1(9),2(6),4,7,10,12-hexaen-4-yl}acetamide] | 8.63 | 9.27
9 | Cc1nnc(CNC(=O)Cc2nc3cnc4ccc(C#N)cc4c3n2[C@@H]2CCO[C@H](C)C2)o1 [Compound 257, N-[(5-methyl-1,3,4-oxadiazol-2-yl)methyl]{3-[(2R,4R)-2-methyltetrahydro-2H-pyran-4-yl]-12-cyano-3,5,8-triazatricyclo[7.4.0.0^2,6]trideca-1(9),2(6),4,7,10,12-hexaen-4-yl}acetamide] | 7.01 | 9.35
10 | Cc1noc(NC(=O)Cc2nc3cnc4ccc(C#N)cc4c3n2[C@@H]2CCO[C@H](C)C2)c1C [Compound 349, N-(3,4-dimethyl-5-isoxazolyl){3-[(2R,4R)-2-methyltetrahydro-2H-pyran-4-yl]-12-cyano-3,5,8-triazatricyclo[7.4.0.0^2,6]trideca-1(9),2(6),4,7,10,12-hexaen-4-yl}acetamide] | 8.13 | 9.26
11 | C[C@@H]1C[C@H](n2c([C@H]3CCN(C(=O)C4CC4)C3)nc3cnc4ccc(C#N)cc4c32)CCO1 [Compound 41, 2-[(3S)-1-cyclopropanecarbonylpyrrolidin-3-yl]-1-[(2R,4R)-2-methyloxan-4-yl]-1H-imidazo[4,5-c]quinoline-8-carbonitrile] | 6.19 | 8.02
12 | COc1nc(C)ncc1NC(=O)Cc1nc2cnc3ccc(C#N)cc3c2n1[C@@H]1CCO[C@H](C)C1 [Compound 248, N-(4-methoxy-2-methyl-5-pyrimidinyl){3-[(2R,4R)-2-methyltetrahydro-2H-pyran-4-yl]-12-cyano-3,5,8-triazatricyclo[7.4.0.0^2,6]trideca-1(9),2(6),4,7,10,12-hexaen-4-yl}acetamide] | 8.38 | 9.40
13 | C[C@@H]1C[C@H](n2c(CC(=O)Nc3cnc(C(F)(F)F)n(C)c3=O)nc3cnc4ccc(C#N)cc4c32)CCO1 [Compound 220, N-[1-methyl-6-oxo-2-(trifluoromethyl)-1,6-dihydro-5-pyrimidinyl]{3-[(2R,4R)-2-methyltetrahydro-2H-pyran-4-yl]-12-cyano-3,5,8-triazatricyclo[7.4.0.0^2,6]trideca-1,4,6,8,10,12-hexaen-4-yl}acetamide] | 8.37 | 9.35
14 | C[C@@H]1C[C@H](n2c(CC(=O)Nc3ccon3)nc3cnc4ccc(Cl)cc4c32)CCO1 [Compound 352, N-3-isoxazolyl{3-[(2R,4R)-2-methyltetrahydro-2H-pyran-4-yl]-12-chloro-3,5,8-triazatricyclo[7.4.0.0^2,6]trideca-1(9),2(6),4,7,10,12-hexaen-4-yl}acetamide] | 8.39 | 9.29
15 | C[C@@H]1C[C@H](n2c(CC(=O)Nc3cnoc3)nc3cnc4ccc(C#N)cc4c32)CCO1 [Compound 180, 2-{8-cyano-1-[(2R,4R)-2-methyloxan-4-yl]-1H-imidazo[4,5-c]quinolin-2-yl}-N-(1,2-oxazol-4-yl)acetamide] | 7.67 | 9.36
